61 compounds from US11780845B2 (Relay Therapeutics, Inc., priority 2019, dated 2023) can be followed below.

Where only a bound is given, the exact number is not on record here.

In the assay the target is FGFR2 (Homo sapiens (Human), UniProt P21802). The assay is described as follows: FGFR2 Biochemical Caliper Assay. The procedure: Compounds of the present invention were also tested in a FGFR2 Biochemical Caliper Assay. Compounds were prepared in 10 mM DMSO solution and serially diluted into 11 concentrations by 3-fold dilution. […] 5 uL of ATP solution (100 uM) was added to start the reaction and the plate was incubated for 90 minutes, then 70 uL of stopping buffer (0.5M EDTA) was added to terminate the reaction. Each well was analyzed using EZ reader.
FGFR2, sequence (P21802 22-821): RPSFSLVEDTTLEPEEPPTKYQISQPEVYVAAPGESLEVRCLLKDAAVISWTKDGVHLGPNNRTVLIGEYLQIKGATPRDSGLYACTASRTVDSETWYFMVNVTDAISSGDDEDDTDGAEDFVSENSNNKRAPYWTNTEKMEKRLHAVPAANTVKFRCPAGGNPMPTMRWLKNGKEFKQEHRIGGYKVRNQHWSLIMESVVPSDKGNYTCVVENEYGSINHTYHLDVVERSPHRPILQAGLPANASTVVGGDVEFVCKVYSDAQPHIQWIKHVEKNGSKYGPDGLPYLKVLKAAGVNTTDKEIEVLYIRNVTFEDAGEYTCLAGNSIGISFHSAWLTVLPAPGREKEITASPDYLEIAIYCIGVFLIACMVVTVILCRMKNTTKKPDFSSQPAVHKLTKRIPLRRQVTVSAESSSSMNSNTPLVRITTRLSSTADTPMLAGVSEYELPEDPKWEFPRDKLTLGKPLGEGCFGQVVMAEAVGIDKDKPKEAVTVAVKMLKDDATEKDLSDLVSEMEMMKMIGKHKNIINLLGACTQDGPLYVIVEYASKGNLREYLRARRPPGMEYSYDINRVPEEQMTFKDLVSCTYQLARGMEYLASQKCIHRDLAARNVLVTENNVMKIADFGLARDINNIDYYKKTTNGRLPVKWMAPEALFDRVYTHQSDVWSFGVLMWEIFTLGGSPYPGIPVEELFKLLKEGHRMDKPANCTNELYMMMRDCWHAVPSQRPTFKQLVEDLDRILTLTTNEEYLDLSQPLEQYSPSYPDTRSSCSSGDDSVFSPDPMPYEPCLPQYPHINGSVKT
The IC50 is the concentration at which inhibition is half-maximal. High values mean weaker potency, low ones greater potency. The compound `C=C(C)C(=O)Nc1ccc(-c2c(-c3ccc(C(=O)NCC4CNC4)cc3)c3c(N)ncnc3n2C)cc1` [Example 334] returned an IC50 of 250 to 1000 nM. `C=C(C)C(=O)Nc1ccc(-c2c(-c3ccc(C(=O)N4CC[C@H](OC)C4)cc3)c3c(N)ncnc3n2C)cc1` [Example 240] gave an IC50 of 1000 to 100000 nM. The result for `C=CC(=O)Nc1ccc(-c2c(-c3ccc(Oc4ccc(C)cn4)c(OC)c3)c3c(N)ncnc3n2C)cc1` [Example 40] reads less than 100 nM. The result for `Cn1c(-c2ccc(NC(=O)C=C3CCC3)cc2)c(-c2ccc(C(=O)N3CCCC3)cc2)c2c(N)ncnc21` [Example 525] reads 1000 to 100000 nM. `C=C(C)C(=O)Nc1ccc(-c2c(-c3ccc(C(=O)N4CC[C@@H](OC)C4)cc3)c3c(N)ncnc3n2C)cc1` [Example 252]: the IC50 is 250 to 1000 nM. The figure for `C=C(C)C(=O)Nc1ccc(-c2c(-c3ccc(Cn4cc(C)cn4)c(F)c3)c3c(N)ncnc3n2C)cc1` [Example 158] is 1000 to 100000 nM. Regarding `C=CC(=O)N1CCC(n2cc(-c3c(-c4cc(OC)c(Cl)cc4Cl)c4c(N)ncnc4n3C)cn2)CC1` [Example 613], the IC50 was in the range of 1000 to 100000 nM. The result for `C=C(C)C(=O)Nc1ccc(-c2c(-c3ccc(OCc4ccccc4)nc3)c3c(N)ncnc3n2C)cc1` [Example 138] reads 1000 to 100000 nM; that for `Cn1c(-c2ccc(NC(=O)C3=CCC3)cc2)c(C2=CC[C@H](C(=O)N3CCCC3)CC2)c2c(N)ncnc21` (single isomer, unassigned) [Example 579], 250 to 1000 nM.

Take `C=C(C)C(=O)Nc1ccc(-c2c(-c3ccc(=O)n(Cc4ccccc4)c3)c3c(N)ncnc3n2C)cc1` [Example 182]: the IC50 is 1000 to 100000 nM.

For the compound `C=C(C)C(=O)Nc1ccc(-c2c(C3=CC[C@@H](Oc4ccn(C)n4)CC3)c3c(N)ncnc3n2C)cc1` (single isomer, unassigned) [Example 549], the half-maximal inhibitory concentration (IC50) lay within 1000 to 100000 nM.

Regarding `C=CC(=O)N1CCC(N2CC(c3c(-c4ccc(Oc5cccc(C)n5)cc4)c4c(N)ncnc4n3C)C2)CC1` [Example 659], the concentration for half-maximal inhibition (IC50) lay in the range of 1000 to 100000 nM. In turn, `C=C(C)C(=O)Nc1ccc(-c2c(-c3cc(O)c(Oc4ncccn4)c(CC)c3)c3c(N)ncnc3n2C)cc1` [Example 200] registered a concentration for half-maximal inhibition (IC50) of 1000 to 100000 nM. On to `Cc1cccc(Oc2ccc(-c3c(-c4cnc(C#N)nc4)n(C)c4ncnc(N)c34)cc2)n1` [Example 405], for which the 50% inhibitory concentration (IC50) is less than 100 nM.

`C=C(C)C(=O)Nc1ccc(-c2c(-c3ccc4c(c3)CC(=O)N4)c3c(N)ncnc3n2C)cc1` [Example 125] returned an IC50 of 1000 to 100000 nM. The figure for `C=CC(=O)Nc1ccc(-c2c(-c3cccc(OC)c3)c3c(N)ncnc3n2C)cc1` [Example 25] is less than 100 nM. The compound `C=C(C)C(=O)Nc1ccc(-c2c(-c3ccc(-c4cc(C)no4)cc3)c3c(N)ncnc3n2C)cc1` [Example 277] showed a half-inhibitory concentration (IC50) of 250 to 1000 nM. The figure for `C=CC(=O)Nc1ccc(-c2c(Br)c3c(N)ncnc3n2C)cc1` [Example 37] is less than 100 nM; for `C=C(C)C(=O)Nc1ccc(-c2c(-c3ccc(Oc4nccc(C)n4)c(F)c3)c3c(N)ncnc3n2C2CCOC2)cc1` (stereo not shown) [Example 536] it is less than 100 nM; for `C=C(C)C(=O)Nc1ccc(-c2c(-c3ccc(OCC(=O)O)cc3)c3c(N)ncnc3n2C)cc1` [Example 124] it is 1000 to 100000 nM. The result for `C=C(C)C(=O)Nc1ccc(-c2c(C3=CC[C@@H](C(=O)NCC(C)(C)OC)CC3)c3c(N)ncnc3n2C)cc1` (single isomer, unassigned) [Example 431] reads 250 to 1000 nM; that for `C=C(C)C(=O)Nc1ccc(-c2c(-c3ccc(C(=O)N(C)c4ncccn4)cc3)c3c(N)ncnc3n2C)cc1` [Example 256], 1000 to 100000 nM; that for `C=C(C)C(=O)Nc1ccc(-c2c(-c3cnn(CC4CCNCC4)c3)c3c(N)ncnc3n2C)cc1` [Example 221], 1000 to 100000 nM.

With `C=C(C)C(=O)Nc1ccc(-c2c(-c3ccc(C(=O)N(C)CC4(OC)CC4)cc3)c3c(N)ncnc3n2C)cc1` [Example 440], the IC50 was 1000 to 100000 nM. The result for `C=C(C)C(=O)Nc1ccc(-c2c(-c3ccc(C(=O)N4CCCC4)cn3)c3c(N)ncnc3n2C)cc1` [Example 596] reads less than 100 nM; that for `C=C(C)C(=O)Nc1ccc(-c2c(-c3ccc(C(=O)NC4CCN(C)C4=O)cc3)c3c(N)ncnc3n2C)cc1` (stereo not shown) [Example 389], 100 to 250 nM.

For `C=CC(=O)N1CCC(c2c(-c3ccc(Oc4cccc(C)n4)c(OC)c3)c3c(N)ncnc3n2C)=CC1C` (stereo not shown) [Example 679], the concentration for half-maximal inhibition (IC50) is less than 100 nM. `C=C(C)C(=O)Nc1ccc(-c2c(-c3ccc(Oc4ncc(Cl)cn4)c(OC)c3)c3c(N)ncnc3n2C)cc1` [Example 102] yielded an IC50 of 100 to 250 nM. Compound `C=C(C)C(=O)Nc1ccc(-c2c(-c3ccc(C(=O)NC4CCOC4)c(OC)c3)c3c(N)ncnc3n2C2COC2)cc1` (stereo not shown) [Example 400] showed a half-inhibitory concentration (IC50) of 100 to 250 nM. `C=C(C)C(=O)Nc1ccc(-c2c(-c3ccc(C(=O)NCCF)cc3)c3c(N)ncnc3n2C)cc1` [Example 363] gave an IC50 of less than 100 nM. The result for `C=C(C)C(=O)Nc1ccc(-c2c(-c3ccc4cn(C)nc4c3)c3c(N)ncnc3n2C)cc1` [Example 164] reads 100 to 250 nM; that for `C=C(C)C(=O)Nc1ccc(-c2c(-c3ccc(C(=O)N4CCC(F)(F)CC4)cc3)c3c(N)ncnc3n2C)cc1` [Example 142], 1000 to 100000 nM; that for `C=C(C)C(=O)Nc1ccc(-c2c(-c3ccc(Oc4cccc(C#N)n4)cc3)c3c(N)ncnc3n2C)cc1` [Example 345], less than 100 nM. The result for `C=C(C)C(=O)Nc1ccc(-c2c(-c3ccc(C(=O)N4CC5CC4(C(F)F)C5)cc3)c3c(N)ncnc3n2C)cc1` [Example 595] reads less than 100 nM; that for `C=CC(=O)Nc1ccc(-c2c(-c3ccc(Oc4ncccc4C)c(OC)c3)c3c(N)ncnc3n2C)cc1` [Example 42], less than 100 nM; that for `Cn1c(-c2ccc(N3CCC=CC3=O)cc2)c(-c2ccc(C(=O)N3CCCC3)cc2)c2c(N)ncnc21` [Example 540], 1000 to 100000 nM. As to `C=C(C)C(=O)Nc1ccc(-c2c(-c3ccc(N(C)c4ncccn4)cc3)c3c(N)ncnc3n2C)cc1` [Example 62], the IC50 lay within 1000 to 100000 nM. In turn, `C=C(C)C(=O)Nc1ccc(-c2c(-c3ccc4c(c3)OCCN4C)c3c(N)ncnc3n2C)cc1` [Example 175] showed an IC50 of less than 100 nM. On to `C=C(C)C(=O)Nc1ccc(-c2c(C3=CCC(C(=O)NCC4CCC4)CC3)c3c(N)ncnc3n2C)cc1` (stereo not shown) [Example 402], for which the IC50 lay in the range of 100 to 250 nM.

Compound `C/C(=C\CN(C)C)C(=O)Nc1ccc(-c2c(-c3ccc(C(=O)N4CCCC4)cc3)c3c(N)ncnc3n2C)cc1` [Example 553] yielded a half-maximal inhibitory concentration (IC50) of 250 to 1000 nM. `C=C(C)C(=O)Nc1ccc(-c2c(C3=CC[C@@H](C(=O)N4CC[C@@H](CO)C4)CC3)c3c(N)ncnc3n2C)cc1` (single isomer, unassigned) [Example 583] returned an IC50 of 250 to 1000 nM.

In the case of `C=C(C)C(=O)Nc1ccc(-c2c(-c3ccc(Sc4ccccc4)nc3)c3c(N)ncnc3n2C)cc1` [Example 225], the IC50 is 250 to 1000 nM. The figure for `C=CC(=O)Nc1ccc(-c2c(-c3ccc(Oc4cccc(C)c4)cc3)c3c(N)ncnc3n2C)cc1` [Example 28] is less than 100 nM; for `C=C(C)C(=O)N(C)c1ccc(-c2c(-c3ccc(C(=O)NCC(C)(C)OC)cc3)c3c(N)ncnc3n2C)cc1` [Example 421] it is 1000 to 100000 nM; for `C=C(C)C(=O)Nc1ccc(-c2c(-c3cc(C)c(Oc4ccccn4)c(O)c3)c3c(N)ncnc3n2C)cc1` [Example 129] it is 250 to 1000 nM. The result for `C=CC(=O)Nc1cccc(-c2c(-c3ccc(Oc4cccc(C)n4)c(OC)c3)c3c(N)ncnc3n2C)c1` [Example 7] reads less than 100 nM; that for `C=C(C)C(=O)Nc1ccc(-c2c(-c3ccc4c(cnn4C(C)C)c3)c3c(N)ncnc3n2C)cc1` [Example 170], 250 to 1000 nM; that for `C=C(C)C(=O)Nc1ccc(-c2c(-c3ccc(CN4CCC(F)(F)CC4)c(F)c3)c3c(N)ncnc3n2C)cc1` [Example 159], 1000 to 100000 nM.

`C=C(C)C(=O)Nc1ccc(-c2c(-c3ccc(C(=O)NCC4(O)CCC4)cc3)c3c(N)ncnc3n2C)cc1` [Example 347] gave an IC50 of less than 100 nM. Regarding `C=C(C)C(=O)Nc1ccc(-c2c(-c3ccc(Oc4cccc(C)n4)cc3)c3c(N)ncnc3n2CCN2CCOCC2)cc1` [Example 79], the IC50 is 100 to 250 nM. Compound `C=C(C)C(=O)Nc1ccc(-c2c(-c3ccc(C(=O)N4CCCC4)cc3)c3c(N)ncnc3n2C)c([C@H]2CCCO2)c1` (single isomer, unassigned) [Example 509] gave an IC50 of 250 to 1000 nM. The figure for `C=CC(=O)Nc1ccc(-c2c(-c3ccc(Oc4cccc(C)n4)c(C)c3)c3c(N)ncnc3n2C)cc1` [Example 19] is less than 100 nM; for `C=C(C)C(=O)Nc1ccc(-c2c(-c3ccc(Oc4cccc(C)n4)cc3)c3c(N)ncnc3n2CCN2CCN(C)CC2)cc1` [Example 89] it is less than 100 nM. `C=CCC(=O)Nc1ccc(-c2c(-c3ccc(Oc4cccc(C)n4)c(OC)c3)c3c(N)ncnc3n2C)cc1` [Example 2] displayed a half-maximal inhibitory concentration (IC50) of 250 to 1000 nM. The figure for `C=CC(=O)N1CCC(n2cc(-c3c(-c4cc(OC)c(Cl)cc4F)c4c(N)ncnc4n3C)cn2)CC1` [Example 614] is 1000 to 100000 nM; for `C=CC(=O)Nc1ccc(-c2c(-c3ccc(Oc4cccc(C)n4)cc3)c3c(N)ncnc3n2C)cc1C` [Example 21] it is less than 100 nM. The figure for `CC#CC(=O)Nc1ccc(-c2c(-c3cccc(OC)c3)c3c(N)ncnc3n2C)cc1` [Example 73] is 100 to 250 nM; for `CCC(=O)Nc1ccc(-c2c(-c3ccc(Oc4ccccn4)c(OC)c3)c3c(N)ncnc3n2C)cc1` [Example 67] it is 1000 to 100000 nM; for `C=C(C)C(=O)Nc1ccc(-c2c(-c3ccc(C(=O)NC4CCOC4)c(F)c3)c3c(N)ncnc3n2C)cc1` (stereo not shown) [Example 396] it is 100 to 250 nM. In the case of `C=C(C)C(=O)Nc1ccc(-c2c(-c3ccc(C(=O)N4CCCC4)cc3)c3c(N)ncnc3n2C)cc1C` [Example 407], the concentration for half-maximal inhibition (IC50) was 1000 to 100000 nM. The figure for `CCC(=O)Nc1ccc(-c2c(-c3ccc(Oc4ncccn4)c(OC)c3)c3c(N)ncnc3n2C)cc1` [Example 43] is 1000 to 100000 nM.
